Laboratory results as given in patent US20240385182A1, “MASKED FLUOROGENIC LIPID COMPOUNDS, LIPID PARTICLES COMPRISING THE SAME, AND METHODS OF USE THEREOF” (Rutgers, The State University of New Jersey, priority 2023, published 2024).
Blank lines part the entries; values can stand above or below the compound they belong to.

Assays:
[1] = Photophysical characterization of probes and uncaged forms (relative fluorescence quantum yield, extinction coefficient, brightness); assay type: physicochemical; settings: for Brightness: in M⁻¹·cm⁻¹ (unit assumed)
Protocol: (§1) The pKa of TEG-TC was determined to be 7.1±0.1 using UV-Vis spectrophotometric measurements. Under the confocal imaging conditions (pH 7.5-8.5 with cell-free assays, pH 7.4 with cells), a substantial population of the 7-hydroxycoumarin should exist in its aryloxide form. The change in coumarin fluorogenicity was assessed upon uncaging the probes from the oxobutylphenyl carbonate by measuring the relative fluorescence quantum yield (ΦFrel) values (Table 2). Coumarin 343 was used as a standard, which has an absolute fluorescence quantum yield ([…]) of 0.63 in ethanol. The ΦFrel values of TEG-TC-ONOO^− (entry 1) and DPPC-TC-ONOO^− (entry 3) were measured as 0.08 and 0.09, respectively. […] The ΦFrel values for TEG-TC (entry 2) and DPPC-TC (entry 4), which were synthesized independently, were measured as 0.66 and 0.64, respectively.
Next, the impact of caging and uncaging of the coumarin or fluorescein moieties on their fluorogenicity was assessed by measuring the relative fluorescence quantum yield (ΦFrel) values (Table 3). Coumarin 343 was used as the standard for measuring ΦFrel of the triazole-coumarin compounds (TEG-TC-H2S, TEG-TC, DPPC-TC-H2S, and DPPC-TC) whereas fluorescein for the triazole-fluorescein compounds (TEG-TF-H2O2, TEG-TF, and DPPC-TF-H2O2, and DPPC-TF). Relative to coumarin 343, whose absolute fluorescence quantum yield (ΦF) is 0.63 in ethanol, ΦFrels of the H2S probes TEG-TC-H2S (entry 1) and DPPC-TC-H2S (entry 3) were determined to be 0.07 and 0.03, respectively.
(§2) The pKa of TEG-TC was previously found to be to be 7.1±0.1 using UV-Vis spectrophotometric measurements. Under the fluorescence activation assay conditions that are employed here (Tris 50 mM, pH 7.5), a substantial population of the coumarin moiety is expected to be in its aryloxide anion form. Relative to fluorescein, whose ΦF is 0.79 in ethanol, ΦFrel values of the H2O2 probes TEG-TF-H2O2 (entry 5) and DPPC-TF-H2O2 (entry 7) were determined to be 0.04 and 0.02, respectively.

[2] = Confocal imaging of H2O2-sensing giant vesicles
From the text: FIGS. 14A-14B: giant vesicles (GVs) that can sense reductive (FIG. 14A) or oxidative (FIG. 14B) environments. Confocal images acquired for H2S-sensing GV at 405/475 nm (ex/em) (FIG. 14A) and H2O2 sensing GV at 490/520 nm (ex/em) (FIG. 14B). Lipid compositions of GVs: POPC, POPG, cholesterol, and DPPC-TC-H2S (48:21:30:1 molar ratio; FIG. 14A); and POPC, POPG, cholesterol, and DPPC-TF-H2O2 (48.5:21:30:0.5; FIG. 14B). To label vesicle membranes, Liss-Rhod PE dye (563/580 nm) was introduced to the lipid mixture at an insignificant molar ratio (0.1 mol %). Concentrations of RSS and ROS were set to 500 and 100 μM, respectively. Scale bar=5 μm.
The redox sensing abilities of giant vesicles (GVs) comprising DPPC-TC-H2S or DPPC-TF-H2O2 were investigated. In most biomimetic systems that rely on compartmentalization, physical membrane boundaries are comprised of phospholipids and cholesterol. These lipid self-assemblies have dimensional properties (1-30 μm in diameter) relevant to those of a mammalian plasma membrane (10-100 μm), display physical characteristics feasible for confocal fluorescence imaging, and are conveniently utilized for bottom-up construction of biomimetic protocells. […]
The vesicle size distribution was analyzed by dynamic light scattering (DLS), confirming the presence of GVs. […]

[3] = in ethanol; standard; cited from earlier work
[4] = Fluorescence response of TEG-TC-ONOO^− to peroxynitrite in Tris buffer (plate reader)
Protocol: FIG. 7A: time-dependent change in relative fluorescence intensities for probe TEG-TC-ONOO^− (1 μM) and compound TEG-TC (1 μM) in Tris (50 mM, pH 7.5) upon addition of ONOO^− (600 μM). Filled square: TEG-TC, hollow square: TEG-TC+ONOO^−, filled circle: TEG-TC-ONOO^−, and hollow circle: TEG-TC-ONOO^−+ONOO^−. Error bars represent standard deviation, n=3. FIG. 7B: relative fluorescence intensity (F) with respect to the background fluorescence intensity (F0) of TEG-TC-ONOO^− in the absence or presence of redox species. Probe TEG-TC-ONOO^− (1 μM) was dissolved in Tris buffer (50 mM, pH 7.5) and subjected to RNS and ROS (600 μM): ONOO^−, NO·, H2O2, HO·, ^1O2, and O·^−. Data represent FIFO measurements for samples incubated for 60 min. Plate reader was set to excitation at 405 nm and emission at 475 nm. Error bars represent standard deviation, n=3. The response rate and magnitude of TEG-TC-ONOO^− against ONOO^− was evaluated by measuring the relative fluorescence intensities of samples containing TEG-TC-ONOO^− and TEG-TC (positive control) at 405 nm excitation (FIG. 7A). These samples, prepared in Tris buffer (50 mM, pH 7.5), were measured over 60 minutes of incubation with and without ONOO^−. Physiologically normal ONOO^− production rate in cells has been estimated to be in the single-digit μM range, while reaching up to 100 μM under dysregulated conditions. Guided by this information, and in agreement with the fluorescence titration conditions employed for cytosolic resorufin-based peroxynitrite sensors, it was reasoned that administering 600 μM of ONOO^− into a pH 7.5 medium would provide a steady level of effective ONOO^− within a biologically relevant concentration range of […]. […] The difference in fluorescence between the peroxynitrite-treated and untreated samples reached up to 5-fold at the end of 60 minutes. During this time period, the relative fluorescence intensity of the sample containing TEG-TC-ONOO^− became ˜85% of that of the sample containing TEG-TC (positive control). This trend of increasing fluorescence output was mirrored in the level of conversion of TEG-TC-ONOO^− into TEG-TC based on UV-Vis spectrophotometric measurements. The peroxynitrite-specificity of the probe design was assessed by subjecting TEG-TC-ONOO^− to other redox species, including NO·, hydrogen peroxide (H2O2), singlet oxygen (^1O2), hydroxyl radicals (HO·), and O2·^− (FIG. 7B). Change in fluorescence intensity following excitation at 405 nm was measured over 60 minutes of incubation of TEG-TC-ONOO^− with each species and presented based on the signal-to-background ratio F/F0, where F and F0 are defined as the fluorescence with and without the analyte. In the absence of a redox species, F/F0 for TEG-TC-ONOO^− increased only 13% (F/F0=1.13) over 60 minutes. Treatment of TEG-TC-ONOO^− with ONOO^− gave rise to ˜570% increase in fluorescence (F/F0=6.69).

[5] = Peroxynitrite-specificity: TEG-TC-ONOO^− subjected to other redox species; settings: for F/F0: 60 min
Protocol: FIG. 7A: time-dependent change in relative fluorescence intensities for probe TEG-TC-ONOO^− (1 μM) and compound TEG-TC (1 μM) in Tris (50 mM, pH 7.5) upon addition of ONOO^− (600 μM). Filled square: TEG-TC, hollow square: TEG-TC+ONOO^−, filled circle: TEG-TC-ONOO^−, and hollow circle: TEG-TC-ONOO^−+ONOO^−. Error bars represent standard deviation, n=3. FIG. 7B: relative fluorescence intensity (F) with respect to the background fluorescence intensity (F0) of TEG-TC-ONOO^− in the absence or presence of redox species. Probe TEG-TC-ONOO^− (1 μM) was dissolved in Tris buffer (50 mM, pH 7.5) and subjected to RNS and ROS (600 μM): ONOO^−, NO·, H2O2, HO·, ^1O2, and O·^−. Data represent FIFO measurements for samples incubated for 60 min. Plate reader was set to excitation at 405 nm and emission at 475 nm. Error bars represent standard deviation, n=3. The peroxynitrite-specificity of the probe design was assessed by subjecting TEG-TC-ONOO^− to other redox species, including NO·, hydrogen peroxide (H2O2), singlet oxygen (^1O2), hydroxyl radicals (HO·), and O2·^− (FIG. 7B). Change in fluorescence intensity following excitation at 405 nm was measured over 60 minutes of incubation of TEG-TC-ONOO^− with each species and presented based on the signal-to-background ratio F/F0, where F and F0 are defined as the fluorescence with and without the analyte. In the absence of a redox species, F/F0 for TEG-TC-ONOO^− increased only 13% (F/F0=1.13) over 60 minutes. Treatment of TEG-TC-ONOO^− with ONOO^− gave rise to ˜570% increase in fluorescence (F/F0=6.69). […] NO·, a free radical RNS that serves as a signaling molecule in cells, had essentially no effect on fluorescence intensity (F/F0=1.03).

HeLa and RAW 264.7 cells = assay: Subcellular localization of non-amphiphilic probes in cells treated directly; assay type: cell-based; settings: 20 minutes, TEG-TC-ONOO− cells then stimulated
Protocol: Therefore, cells were treated with TEG-TC (positive control) or TEG-TC-ONOO− directly and incubated for 20 minutes. Those treated with TEG-TC-ONOO− were then stimulated via the methods described above. […] In the case of RAW 264.7 cells, the intracellular homogeneity of the signal was especially substantial.

[6] = pKa by UV-Vis spectrophotometric measurements; assay type: physicochemical
Protocol: as §1, §2

- Emmax [1]: 519.5 nm
- Exmax [1]: 495.2 nm
- Ext. Coeff. [1]: 10685 M⁻¹ cm⁻¹
- Relative Brightness ([1]; Table 3, brightness compared to that of DPPC-TF-H2O2): 1.0
- Brightness [1]: 214
- Quantum Yield (relative fluorescence quantum yield ΦFrel) ([1]; standard fluorescein): 0.02
Compound: CCCCCCCCCCCCCCCC(=O)OCC(COP(=O)([O-])OCC[N+](C)(C)Cc1cn(-c2ccc3c(c2)C(=O)OC32c3ccc(OC(=O)OCc4ccc(B5OC(C)(C)C(C)(C)O5)cc4)cc3Oc3cc(OC(=O)OCc4ccc(B5OC(C)(C)C(C)(C)O5)cc4)ccc32)nn1)OC(=O)CCCCCCCCCCCCCCC (racemic) [DPPC-TF-H2O2]
- GV fluorescence at the membrane ([2]; GVs with POPC, POPG, cholesterol, H2O2 (100 PM) over 90 min): substantial fluorescence increase
- GV fluorescence intensities ([2]; equimolar other ROS (NO, ·OH, O2·^−)): comparable to those for the untreated GVs

Compound: O=C(O)c1cc2cc3c4c(c2oc1=O)CCCN4CCC3 [Coumarin 343]
- absolute fluorescence quantum yield (ΦF) [3]: 0.63

- Emmax [1]: 472.0 nm
- Exmax [1]: 400.0 nm
- Ext. Coeff. [1]: 4475 M⁻¹ cm⁻¹
- Relative Brightness ([1]; Table 2, DPPC-TC-ONOO^− = 1.0): 1.4
- Brightness [1]: 358
- Quantum Yield (relative fluorescence quantum yield ΦFrel) ([1]; standard coumarin 343): 0.08
Compound: O=C(Oc1ccc(CCC(=O)C(F)(F)F)cc1)Oc1ccc2cc(-n3cc(COCCOCCOCCO)nn3)c(=O)oc2c1 [TEG-TC-ONOO^−]
- F/F0 ([4]; ONOO^− 600 μM, 60 min, 405/475 nm): 6.69
- difference in fluorescence between peroxynitrite-treated and untreated samples ([4]; ONOO^− (600 PM), Tris 50 mM pH 7.5, end of 60 minutes): up to 5 fold
- relative fluorescence intensity as % of that of TEG-TC (positive control) ([4]; ONOO^− treated, 60 minutes): ~85%
- F/F0 ([4]; absence of a redox species, 60 minutes, 405 nm excitation): 1.13
- increase in F/F0 ([4]; absence of a redox species, over 60 minutes): 13%
- fluorescence compared to the sample untreated ([4]; probe 1 μM, ONOO^− (600 PM), Tris 50 mM pH 7.5, within the first 10 minutes): ~3 fold
- increase in fluorescence ([4]; treatment with ONOO^−, 60 min): ~570%
- relative fluorescence enhancement for ONOO^− compared to the other RNS and ROS [5]: ~36 fold
- F/F0 ([5]; H2O2 600 μM): 1.16
- fluorescence intensity stronger than background ([5]; H2O2, 60 min): 16%
- F/F0 ([5]; NO· 600 μM): 1.03
- subcellular distribution of signal (HeLa and RAW 264.7 cells): throughout the cells, including the nucleus

- pKa [6]: 7.1±0.1
- Emmax [1]: 471.4 nm
- Exmax [1]: 397.0 nm
- Ext. Coeff. [1]: 15613 M⁻¹ cm⁻¹
- enhanced brightness, uncaging product vs caged probe [1]: 28 fold
- Relative Brightness ([1]; Table 2, DPPC-TC-ONOO^− = 1.0): 41.1
- Relative Brightness ([1]; Table 3, brightness compared to that of DPPC-TC-H2S): 143.2
- Brightness [1]: 10305
- Quantum Yield (relative fluorescence quantum yield ΦFrel) ([1]; standard coumarin 343): 0.66
Compound: O=c1oc2cc(O)ccc2cc1-n1cc(COCCOCCOCCO)nn1 [TEG-TC]
- subcellular distribution of signal (HeLa and RAW 264.7 cells): throughout the cells, including the nucleus
